In experiment [1] the target is T1, Endoribonuclease toxin MazF (Escherichia coli K-12, UniProt P0AE70).
T1 sequence (P0AE70 whole entry): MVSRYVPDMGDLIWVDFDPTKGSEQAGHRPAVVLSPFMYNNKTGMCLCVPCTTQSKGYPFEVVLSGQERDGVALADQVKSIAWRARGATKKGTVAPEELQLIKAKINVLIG
Put plainly: fluorescent RNA oligo signal without MazF, dose response, counter-screen for MazEF activator project, biochemical, fluorescence, single-stranded RNase substrate (AID 588502). Type of experiment: functional.

Experiment [2] has as its target T1, Endoribonuclease toxin MazF. Put plainly: MazF toxin RNase activators, dose response, biochemical, fluorescence, single-stranded RNA substrate, uHTS hits (AID 588481). Type of experiment: functional.
For experiment [3], the target named is SWI/SNF-related matrix-associated actin-dependent regulator of chromatin subfamily A member 2 (Homo sapiens, UniProt P51531). Put plainly: Luminescence-based cell-based high throughput dose response assay to identify activators of the function of SWI/SNF related, matrix associated, actin dependent regulator of chromatin, subfamily a, member 2 (SMARCA2, BRM). Type of experiment: functional.

Experiment [4] in a line: Counterscreen for activators of the function of SWI/SNF related, matrix associated, actin dependent regulator of chromatin, subfamily a, member 2 (SMARCA2, BRM): Luminescence-based cell-based high throughput dose response assay to identify non-selective compounds using the VP16 reporter assay. In kind it is functional.
Experiment [5] in a line: nonselective inhibitors of cellular cAMP signaling, dose response, counter-screen for MC4R biased antagonist project, cell-based, TR-FRET cAMP detection (AID 602305).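 Further: U2OS cells stimulated with forskolin near its EC80 as the cAMP inducer; potency is for inhibition of forskolin-stimulated cAMP signaling.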 Type of experiment: functional.
For experiment [6], the target named is Peroxisome proliferator-activated receptor gamma/Nuclear receptor coactivator 1 (Homo sapiens, UniProt P37231). Put plainly: TR-FRET dose response biochemical High Throughput Screening assay for agonists of the steroid receptor coactivator 1 (SRC-1) recruitment by the peroxisome proliferator-activated receptor gamma (PPAR gamma): non-selective agonists. [Related pubchem assays (depositor defined):AID1300, AID1808, AID504735, AID631]. In kind it is protein assay.

For a further experiment, the target named is Melanocortin receptor 4 (Homo sapiens, UniProt P32245). Put plainly: MC4R antagonist potency on cAMP, dose response, cell-based, TR-FRET, biased antagonists (AID 602298).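 Further: antagonist potency against agonist-stimulated cAMP production.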 Type of experiment: functional.
Experiment [7] addresses Peroxisome proliferator-activated receptor gamma/Nuclear receptor coactivator 3 (Homo sapiens, UniProt P37231). Put plainly: TR-FRET dose response biochemical High Throughput Screening assay for agonists of the steroid receptor coactivator 3 (SRC-3) recruitment by the peroxisome proliferator-activated receptor gamma (PPAR gamma): non-selective agonists. [Related pubchem assays: 1301 (Confirmation screen.), 1048 (Primary screen.)]. In kind it is functional.

Experiment [8] has as its target Peroxisome proliferator-activated receptor gamma/Nuclear receptor coactivator 2 (Homo sapiens, UniProt P37231). Put plainly: TR-FRET dose response biochemical High Throughput Screening assay for agonists of the steroid receptor coactivator 2 (SRC-2) recruitment by the peroxisome proliferator-activated receptor gamma (PPAR gamma): non-selective agonists. [Related pubchem assays: 1297, 1032 ]. Type of experiment: functional.

For experiment [9], the target named is T2, Carboxy-terminal domain RNA polymerase II polypeptide A small phosphatase 1 (Homo sapiens, UniProt Q9GZU7).
T2 sequence (Q9GZU7 whole entry): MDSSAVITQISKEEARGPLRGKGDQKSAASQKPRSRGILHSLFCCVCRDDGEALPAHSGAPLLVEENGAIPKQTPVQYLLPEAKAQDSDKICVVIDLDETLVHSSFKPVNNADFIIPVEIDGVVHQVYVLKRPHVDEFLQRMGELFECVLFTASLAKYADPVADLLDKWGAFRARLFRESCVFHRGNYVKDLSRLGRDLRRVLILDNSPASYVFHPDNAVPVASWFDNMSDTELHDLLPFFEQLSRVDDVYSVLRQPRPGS
Put plainly: inhibitors of CTDSP1, concentration-response testing, biochemical assay, absorbance-based, actives from ultra-high-throughput screening (AID 540297). Type of experiment: functional.

Experiment [10] deals with DNA (cytosine-5)-methyltransferase 1 (Homo sapiens, UniProt P26358). Put plainly: DNMT1 methyltransferase inhibitors, confirmation, biochemical, fluorescent molecular beacon (AID 602386). In kind it is functional.
Experiment [11] has as its target T3, Aryl hydrocarbon receptor (Homo sapiens, UniProt P35869).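 Further: confirmatory quantitative high-throughput screen measuring activation of the AhR signaling pathway.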
T3 sequence (P35869 whole entry): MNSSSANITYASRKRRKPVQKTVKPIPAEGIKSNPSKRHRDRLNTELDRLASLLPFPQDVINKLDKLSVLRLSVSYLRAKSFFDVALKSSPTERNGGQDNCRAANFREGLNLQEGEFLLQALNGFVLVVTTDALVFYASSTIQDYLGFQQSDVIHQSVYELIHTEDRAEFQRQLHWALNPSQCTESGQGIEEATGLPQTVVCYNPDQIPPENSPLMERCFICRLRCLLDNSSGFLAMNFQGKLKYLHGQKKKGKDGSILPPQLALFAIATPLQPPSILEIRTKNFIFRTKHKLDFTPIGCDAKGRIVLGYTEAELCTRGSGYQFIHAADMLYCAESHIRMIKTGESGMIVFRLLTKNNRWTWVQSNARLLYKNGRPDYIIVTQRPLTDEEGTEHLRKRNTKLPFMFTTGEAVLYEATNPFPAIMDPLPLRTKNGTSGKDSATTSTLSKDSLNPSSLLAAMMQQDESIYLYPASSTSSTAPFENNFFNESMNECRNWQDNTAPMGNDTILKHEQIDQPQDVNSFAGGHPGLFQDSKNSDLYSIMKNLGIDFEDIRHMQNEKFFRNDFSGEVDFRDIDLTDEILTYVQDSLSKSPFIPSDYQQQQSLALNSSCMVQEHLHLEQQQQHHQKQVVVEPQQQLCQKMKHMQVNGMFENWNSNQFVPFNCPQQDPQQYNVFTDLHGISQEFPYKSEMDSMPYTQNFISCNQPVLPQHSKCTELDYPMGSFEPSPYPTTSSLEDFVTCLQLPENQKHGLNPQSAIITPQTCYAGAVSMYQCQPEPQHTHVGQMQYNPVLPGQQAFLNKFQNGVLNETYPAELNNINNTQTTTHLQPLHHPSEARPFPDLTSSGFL
The note with it: Potency.

Experiment [12] in a line: Vero E6 cell cytotoxicity, dose response, cytotoxicity control for non-replicating M. tuberculosis project, secondary assay (AID 492998). Type of experiment: functional, VeroE6. As to conditions: Vero C1008.
Another experiment can be described thus: cells. Type of experiment: functional.
The target in experiment [13] is T4, DNA repair and recombination protein RAD54-like (Homo sapiens, UniProt Q92698).
T4 sequence (Q92698 whole entry): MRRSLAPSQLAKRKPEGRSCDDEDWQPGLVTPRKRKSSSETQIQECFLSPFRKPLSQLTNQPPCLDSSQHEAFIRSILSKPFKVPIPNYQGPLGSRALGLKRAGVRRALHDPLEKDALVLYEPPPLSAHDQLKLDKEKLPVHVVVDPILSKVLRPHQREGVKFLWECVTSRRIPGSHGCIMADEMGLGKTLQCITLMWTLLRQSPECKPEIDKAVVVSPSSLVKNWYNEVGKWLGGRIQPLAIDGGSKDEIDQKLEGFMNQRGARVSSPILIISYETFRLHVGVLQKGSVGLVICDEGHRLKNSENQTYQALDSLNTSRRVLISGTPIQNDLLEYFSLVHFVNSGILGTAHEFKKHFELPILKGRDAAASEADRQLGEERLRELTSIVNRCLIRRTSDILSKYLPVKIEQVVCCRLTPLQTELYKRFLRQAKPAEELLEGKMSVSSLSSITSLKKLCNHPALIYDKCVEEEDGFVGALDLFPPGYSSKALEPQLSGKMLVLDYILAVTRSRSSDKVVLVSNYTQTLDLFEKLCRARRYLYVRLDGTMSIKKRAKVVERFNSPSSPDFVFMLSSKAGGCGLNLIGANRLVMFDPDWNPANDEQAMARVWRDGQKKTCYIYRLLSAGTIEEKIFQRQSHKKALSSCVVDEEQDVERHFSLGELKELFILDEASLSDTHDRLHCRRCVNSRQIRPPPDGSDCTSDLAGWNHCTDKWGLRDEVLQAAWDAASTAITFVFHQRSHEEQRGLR
Put plainly: inhibitors of human RAD54 branch migration, confirmation, biochemical, fluorescence, cherry-picked samples, dose series (AID 651657). Type of experiment: functional.

Experiment [14] can be described thus: microbe, parasite or virus in culture. Type of experiment: functional. As to conditions: Mycobacterium tuberculosis.
The nature of experiment [15]: THP-1 cell cytotoxicity, dose response, cytotoxicity control for non-replicating M. tuberculosis project (AID 489025). Type of experiment: functional.
The subject of experiment [16] is HEK293. Put plainly: cells. The note with it: Homo sapiens.
Experiment [17] can be described thus: growth suppression of beta-catenin-knockout colon cells, dose response, cell-based, HCT116, human colon tumor (AID 1045).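 Further: HCT116 colon tumor cells with beta catenin knocked out; cells exposed to compound for 60 hours.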 Type of experiment: functional.
A short description of experiment [18]: growth suppression of PTEN-null colon cells, dose response, cell-based, HCT116 PTEN knockout (AID 1047).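 Further: HCT116 colon tumor cells with PTEN knocked out; cells exposed to compound for 60 hours before readout; potency for loss of cell viability measured by luminescence.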 In kind it is functional.
Experiment [19] deals with T5, Heat shock factor protein 1 (Mus musculus, UniProt P38532).
T5 sequence (P38532 whole entry): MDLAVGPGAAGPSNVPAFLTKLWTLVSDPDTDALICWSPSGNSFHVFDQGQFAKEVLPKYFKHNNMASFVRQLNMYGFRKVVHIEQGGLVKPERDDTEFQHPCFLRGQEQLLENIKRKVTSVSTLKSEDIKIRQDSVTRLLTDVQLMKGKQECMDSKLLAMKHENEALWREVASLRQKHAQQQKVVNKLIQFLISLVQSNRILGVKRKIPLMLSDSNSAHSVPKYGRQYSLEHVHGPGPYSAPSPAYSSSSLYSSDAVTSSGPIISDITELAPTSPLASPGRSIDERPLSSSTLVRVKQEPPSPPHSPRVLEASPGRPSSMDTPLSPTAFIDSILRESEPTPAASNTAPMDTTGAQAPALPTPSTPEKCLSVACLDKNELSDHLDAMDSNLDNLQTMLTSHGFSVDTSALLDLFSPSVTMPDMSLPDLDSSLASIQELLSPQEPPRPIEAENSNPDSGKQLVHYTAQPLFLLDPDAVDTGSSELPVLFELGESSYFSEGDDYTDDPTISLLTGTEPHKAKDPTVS
Put plainly: HSF1 potentiators in luciferase reporter cells, confirmation, cell-based, NIH3T3, luminescence, dose retest (AID 435004).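 Further: stress induced by proteasome inhibitor MG132 added 30 min after compound; luciferase reporter driven by HSF1 response element in NIH3T3 cells; actives raise luminescence as potentiators of the MG132 stress response.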 In kind it is functional.

Experiment [20] concerns HEK293. Put plainly: cells. As to conditions: Homo sapiens. The source holds these as a separate data set.

Active and inactive are the calls of the source. Some results are limits rather than exact numbers.

Sequence of SWI/SNF-related matrix-associated actin-dependent regulator of chromatin subfamily A member 2 (P51531 whole entry): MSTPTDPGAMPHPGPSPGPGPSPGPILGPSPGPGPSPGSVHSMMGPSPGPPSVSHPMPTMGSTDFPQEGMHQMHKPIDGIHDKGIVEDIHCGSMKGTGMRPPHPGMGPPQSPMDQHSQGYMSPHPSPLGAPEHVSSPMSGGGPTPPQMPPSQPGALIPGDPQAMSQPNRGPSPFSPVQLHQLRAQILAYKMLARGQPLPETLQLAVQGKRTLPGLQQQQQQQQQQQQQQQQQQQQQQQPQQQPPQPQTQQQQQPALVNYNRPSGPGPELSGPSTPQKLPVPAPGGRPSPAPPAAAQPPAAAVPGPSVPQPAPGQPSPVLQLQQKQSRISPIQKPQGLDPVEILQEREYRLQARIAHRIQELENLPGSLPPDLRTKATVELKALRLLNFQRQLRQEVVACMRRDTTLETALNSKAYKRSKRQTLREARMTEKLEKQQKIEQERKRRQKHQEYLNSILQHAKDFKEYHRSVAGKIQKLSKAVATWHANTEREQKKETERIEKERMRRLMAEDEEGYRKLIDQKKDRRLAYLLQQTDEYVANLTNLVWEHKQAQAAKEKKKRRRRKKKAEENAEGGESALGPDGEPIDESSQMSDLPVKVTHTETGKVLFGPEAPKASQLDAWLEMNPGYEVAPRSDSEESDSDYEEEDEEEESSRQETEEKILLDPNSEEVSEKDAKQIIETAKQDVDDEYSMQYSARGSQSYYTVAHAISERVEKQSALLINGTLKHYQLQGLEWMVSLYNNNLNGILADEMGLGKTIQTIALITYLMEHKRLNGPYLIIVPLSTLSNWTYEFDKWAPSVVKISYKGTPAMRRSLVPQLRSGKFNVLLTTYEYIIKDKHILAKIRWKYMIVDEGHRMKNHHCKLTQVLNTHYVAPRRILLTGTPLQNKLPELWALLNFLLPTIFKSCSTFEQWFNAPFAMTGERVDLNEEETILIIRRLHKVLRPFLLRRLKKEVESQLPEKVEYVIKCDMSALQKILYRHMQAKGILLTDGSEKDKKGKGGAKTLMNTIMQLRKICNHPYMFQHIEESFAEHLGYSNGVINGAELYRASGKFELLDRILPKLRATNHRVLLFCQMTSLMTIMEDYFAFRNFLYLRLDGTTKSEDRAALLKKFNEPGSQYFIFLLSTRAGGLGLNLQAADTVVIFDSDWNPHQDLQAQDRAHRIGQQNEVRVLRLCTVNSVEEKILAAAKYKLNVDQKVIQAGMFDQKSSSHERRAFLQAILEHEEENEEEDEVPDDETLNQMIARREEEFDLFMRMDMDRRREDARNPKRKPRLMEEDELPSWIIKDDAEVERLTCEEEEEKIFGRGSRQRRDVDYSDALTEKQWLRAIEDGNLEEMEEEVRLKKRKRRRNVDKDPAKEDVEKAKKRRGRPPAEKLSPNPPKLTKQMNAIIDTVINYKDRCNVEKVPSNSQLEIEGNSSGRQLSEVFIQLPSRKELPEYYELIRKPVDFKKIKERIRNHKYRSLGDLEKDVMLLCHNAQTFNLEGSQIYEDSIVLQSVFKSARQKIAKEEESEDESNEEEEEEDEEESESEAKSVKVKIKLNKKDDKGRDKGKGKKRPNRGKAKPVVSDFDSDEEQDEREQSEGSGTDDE
Sequence of Melanocortin receptor 4 (P32245 whole entry): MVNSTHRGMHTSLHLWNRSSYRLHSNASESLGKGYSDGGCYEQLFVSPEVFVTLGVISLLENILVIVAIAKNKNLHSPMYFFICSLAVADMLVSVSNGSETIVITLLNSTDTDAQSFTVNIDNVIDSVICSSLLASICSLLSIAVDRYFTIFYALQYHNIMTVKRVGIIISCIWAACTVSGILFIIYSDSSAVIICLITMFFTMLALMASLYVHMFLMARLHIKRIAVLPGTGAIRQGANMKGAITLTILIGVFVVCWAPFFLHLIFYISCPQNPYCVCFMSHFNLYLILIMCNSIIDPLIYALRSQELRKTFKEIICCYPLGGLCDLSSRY
Sequence of DNA (cytosine-5)-methyltransferase 1 (P26358 whole entry): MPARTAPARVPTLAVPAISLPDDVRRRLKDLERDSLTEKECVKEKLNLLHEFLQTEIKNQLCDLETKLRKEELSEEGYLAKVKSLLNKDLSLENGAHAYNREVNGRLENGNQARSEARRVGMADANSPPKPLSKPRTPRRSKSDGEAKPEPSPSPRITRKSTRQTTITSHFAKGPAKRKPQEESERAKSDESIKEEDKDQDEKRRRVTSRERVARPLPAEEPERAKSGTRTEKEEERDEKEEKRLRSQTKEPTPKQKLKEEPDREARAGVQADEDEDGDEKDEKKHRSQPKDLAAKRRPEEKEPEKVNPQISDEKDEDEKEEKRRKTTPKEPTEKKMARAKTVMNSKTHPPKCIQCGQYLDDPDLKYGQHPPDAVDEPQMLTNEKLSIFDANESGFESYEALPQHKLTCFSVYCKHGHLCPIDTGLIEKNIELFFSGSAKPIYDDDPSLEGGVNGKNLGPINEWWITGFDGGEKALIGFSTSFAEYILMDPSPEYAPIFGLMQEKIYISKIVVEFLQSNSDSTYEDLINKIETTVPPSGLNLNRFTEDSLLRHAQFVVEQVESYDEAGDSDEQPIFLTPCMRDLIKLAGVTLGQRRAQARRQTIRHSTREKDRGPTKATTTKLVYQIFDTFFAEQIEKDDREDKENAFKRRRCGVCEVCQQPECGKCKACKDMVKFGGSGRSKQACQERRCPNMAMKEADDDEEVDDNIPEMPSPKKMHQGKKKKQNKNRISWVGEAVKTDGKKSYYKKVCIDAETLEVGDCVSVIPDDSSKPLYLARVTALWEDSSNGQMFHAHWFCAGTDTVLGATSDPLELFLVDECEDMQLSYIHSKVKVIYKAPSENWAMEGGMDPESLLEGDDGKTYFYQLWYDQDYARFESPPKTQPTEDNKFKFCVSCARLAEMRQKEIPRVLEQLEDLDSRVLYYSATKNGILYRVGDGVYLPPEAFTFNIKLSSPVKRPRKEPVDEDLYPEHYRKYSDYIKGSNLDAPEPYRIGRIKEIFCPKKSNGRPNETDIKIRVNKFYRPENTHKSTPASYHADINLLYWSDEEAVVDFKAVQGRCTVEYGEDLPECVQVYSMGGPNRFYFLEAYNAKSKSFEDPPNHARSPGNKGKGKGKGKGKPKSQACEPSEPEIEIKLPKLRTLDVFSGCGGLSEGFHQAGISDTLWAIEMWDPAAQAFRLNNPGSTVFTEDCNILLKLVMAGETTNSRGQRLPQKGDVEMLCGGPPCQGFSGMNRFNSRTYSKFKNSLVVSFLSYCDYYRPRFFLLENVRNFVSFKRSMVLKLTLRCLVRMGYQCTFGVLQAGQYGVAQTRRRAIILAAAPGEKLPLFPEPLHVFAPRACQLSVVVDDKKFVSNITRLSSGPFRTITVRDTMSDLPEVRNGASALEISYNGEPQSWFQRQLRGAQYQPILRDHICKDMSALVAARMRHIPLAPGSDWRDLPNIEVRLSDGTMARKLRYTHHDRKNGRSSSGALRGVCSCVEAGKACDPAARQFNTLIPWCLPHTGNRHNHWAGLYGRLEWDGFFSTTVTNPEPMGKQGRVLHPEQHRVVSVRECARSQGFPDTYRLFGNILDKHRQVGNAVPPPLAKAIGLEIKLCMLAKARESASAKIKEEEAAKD

Turning to `Cc1cccc(C)c1-n1nnnc1SCC(=O)c1c(N)n(C2CC2)c(=O)[nH]c1=O`, the EC50 in [1] and in experiment [2] was > 99 µM (inactive) each time.
With `C=C1c2ccccc2NC(=O)N1c1ccc(OC)cc1`, the EC50 in experiment [3] and in experiment [4] was > 91.1 µM (inactive) in each case.
Turning to `O=C(O)c1cc(-c2ccc(Cl)s2)nc2ccccc12`, the IC50 (in [5]; on Melanocortin receptor 4) was > 64.6 µM (inactive) in each case. For the same compound, the EC50 in experiment [6] was 42.7 µM (inactive); in [7], > 79.4 µM (not active); in experiment [8] it was 20.7 µM (not active).
For `Cc1ccccc1NC(=O)CSc1ccsc1[N+](=O)[O-]`, the IC50 in [9] was 2.3 µM (active); in experiment [10], 7.7 µM (active).
In the case of `N#Cc1ccccc1` [BENZONITRILE], the AC50 in experiment [11] was 7.08 µM (inconclusive).
On to `COc1ccc(-c2cc(C(=O)Nc3cc(OC)cc(C(=O)Nc4cccc(C(F)(F)F)c4)c3)[nH]n2)cc1`, for which the IC50 (in experiment [5]; on Melanocortin receptor 4) was > 64.6 µM (inactive) throughout.
As to `COCc1cc(O)n2nc(-c3ccc(C)cc3)cc2n1`, the EC50 in experiment [3] and in experiment [4] was > 91.2 µM (inactive) each time.
Take `CCOc1ccc(NC(=O)CNC(=O)c2nn(-c3ccc(OC)cc3)c(=O)c3ccccc23)cc1`: the EC50 was > 99 µM (inactive) in experiment [1] and 48.2 µM (inactive) in experiment [2].
The matching figures for `Cn1c(=O)c2c(ncn2CC(=O)Nc2nc(-c3ccccc3Cl)cs2)n(C)c1=O`: > 99 µM (inactive) and > 99 µM (inactive).
As to `CN(C)CCOc1nc(-c2ccccc2)nc2c1oc1ccccc12`, the EC50 is > 10.1 µM (inactive) in [3] and > 91.2 µM (inactive) in experiment [4]. The CC50 in experiment [12] was > 20 µM (active); in experiment [14], 12.5 µM (active); in experiment [15], 34 µM (active). Moreover, the IC50 is 10.7 µM (active) in the experiment “cells” and > 99 µM (inactive) in [10]. The AC50 in [13] was 4.97 µM (active).
`CCOC(=O)c1cnc2ccc(OCC)cc2c1N(C)Cc1ccccc1`: the IC50 (in experiment [5]; at Melanocortin receptor 4) was > 64.6 µM (inactive) throughout.
As to `CCOC(=O)c1ccc(/N=c2\sc(C(=O)OC)cc(=O)n2Cc2ccco2)cc1`, the IC50 in experiment [5] is > 64.5 µM (inactive); on Melanocortin receptor 4, > 7.17 µM (active). For the same compound, the EC50 is > 59.6 µM (inactive) in the experiment with HEK293 [16]; 5.88 µM (active) in experiment [17]; 7.5 µM (active) in experiment [18]; 16.8 µM (active) in experiment [19]; > 59.6 µM (inactive) in the experiment on HEK293 [20].

These data come from ChEMBL document CHEMBL1201862, “PubChem BioAssay data set” (2004).
